Read-outs that look alike come from different tables or passages of the source.
Columns and labels:
[1] = Log P by HPLC on reversed phase columns (EEC directive 79/831 Annex V.A8); assay type: physicochemical
Experimental: Measurement of Log P values was performed according to EEC directive 79/831 Annex V.A8 by HPLC (High Performance Liquid Chromatography) on reversed phase columns with the following methods: • ^[a]Log P value is determined by measurement of LC-UV, in an acidic range, with 0.1% formic acid in water and acetonitrile as eluent (linear gradient from 10% acetonitrile to 95% acetonitrile). • ^[b]Log P value is determined by measurement of LC-UV, in a neutral range, with 0.001 molar ammonium acetate solution in water and acetonitrile as eluent (linear gradient from 10% acetonitrile to 95% acetonitrile). • ^[c]Log P value is determined by measurement of LC-UV, in an acidic range, with 0.1% phosphoric acid and acetonitrile as eluent (linear gradient from 10% acetonitrile to 95% acetonitrile).
If more than one Log P value is available within the same method, all the values are given and separated by “+”.
Calibration was done with straight-chain alkan2-ones (with 3 to 16 carbon atoms) with known Log P values (measurement of Log P values using retention times with linear interpolation between successive alkanones). Lambda-max-values were determined using UV-spectra from 200 nm to 400 nm and the peak values of the chromatographic signals.

Sphaerotheca fuliginea = assay: In vivo preventive test on Sphaerotheca fuliginea (powdery mildew on cucurbits); settings: Podosphaera fuliginea, 192 h; 500 ppm of active ingredient; gherkin plants sprayed 24 hours before inoculation; evaluated 8 days after inoculation; read-out: efficacy
Experimental: (§1) Solvent: 5% by volume of Dimethyl sulfoxide • 10% by volume of Acetone
(§2) Emulsifier: 1 μl of Tween® 80 per mg of active ingredient
(§3) The active ingredients were made soluble and homogenized in a mixture of Dimethyl sulfoxide/Acetone/Tween® 80 and then diluted in water to the desired concentration.
The young plants of gherkin were treated by spraying the active ingredient prepared as described above. Control plants were treated only with an aqueous solution of Acetone/Dimethyl sulfoxide/Tween® 80.
After 24 hours, the plants were contaminated by spraying the leaves with an aqueous suspension of Sphaerotheca fuliginea spores. The contaminated gherkin plants were incubated for 8 days at 20° C. and at 70-80% relative humidity.
The test was evaluated 8 days after the inoculation. 0% means an efficacy which corresponds to that of the control plants while an efficacy of 100% means that no disease was observed.

Uromyces appendiculatus = assay: In vivo preventive test on Uromyces appendiculatus (bean rust); settings: 264 h, 500 ppm of active ingredient, bean plants sprayed 24 hours before inoculation, evaluated 11 days after inoculation, read-out: efficacy
Experimental: as §1, §2, §3
The young plants of bean were treated by spraying the active ingredient prepared as described above. Control plants were treated only with an aqueous solution of Acetone/Dimethyl sulfoxide/Tween® 80.
After 24 hours, the plants were contaminated by spraying the leaves with an aqueous suspension of Uromyces appendiculatus spores. The contaminated bean plants were incubated for 24 hours at 20° C. and at 100% relative humidity and then for 10 days at 20° C. and at 70-80% relative humidity.
The test was evaluated 11 days after the inoculation. 0% means an efficacy which corresponds to that of the control plants while an efficacy of 100% means that no disease was observed.

Septoria tritici = assay: In vivo preventive test on Septoria tritici (leaf spot on wheat); settings: Zymoseptoria tritici, 456 h; 500 ppm of active ingredient; wheat plants sprayed 24 hours before inoculation; evaluated 19 days after inoculation; read-out: efficacy
Experimental: as §1, §2, §3
The young plants of wheat were treated by spraying the active ingredient prepared as described above. Control plants were treated only with an aqueous solution of Acetone/Dimethyl sulfoxide/Tween® 80.
After 24 hours, the plants were contaminated by spraying the leaves with an aqueous suspension of Septoria tritici spores. The contaminated wheat plants were incubated for 72 hours at 17° C. and at 100% relative humidity and then for 15 days at 20° C. and at 90% relative humidity.
The test was evaluated 19 days after the inoculation. 0% means an efficacy which corresponds to that of the control plants while an efficacy of 100% means that no disease was observed.

[2] = method [a]: LC-UV, acidic range, 0.1% formic acid in water and acetonitrile as eluent

Row | SMILES | chromatographic logP [1, 2] | pest or weed control at 500 ppm (Sphaerotheca fuliginea) [%] | pest or weed control at 500 ppm (Uromyces appendiculatus) [%] | pest or weed control at 500 ppm (Septoria tritici) [%] | LogP [1] | further results
1 | CC(c1ccccc1F)C(O)(Cn1cnnn1)C1(Cl)CC1 (single isomer, unassigned) [Ia-20, 2-(1-chlorocyclopropyl)-3-(2-fluorophenyl)-1-(tetrazol-1-yl)butan-2-ol] | 2.61 | 90 to 100 | 90 to 100 |  |  | 
2 | OC(Cc1cccnc1Cl)(Cn1ncnn1)C1(Cl)CC1 (stereo not drawn) [Ib-05, 2-(1-chlorocyclopropyl)-1-(2-chloro-3-pyridyl)-3-(tetrazol-2-yl)propan-2-ol] | 2.03 | 90 to 100 | 70 to 79 | 90 to 100 |  | 
3 | CC(c1ccccc1F)C(O)(Cn1cnnn1)C1(Cl)CC1 (single isomer, unassigned) [Ia-22, 2-(1-chlorocyclopropyl)-3-(2-fluorophenyl)-1-(tetrazol-1-yl)butan-2-ol] |  |  |  | 90 to 100 |  | LogP [1, 2]: 2.80^[a]
4 | OC(Cc1ccccc1)(Cn1cnnn1)C1(Cl)CC1 (stereo not drawn) [Ia-01, 2-(1-chlorocyclopropyl)-1-phenyl-3-(tetrazol-1-yl)propan-2-ol] | 2.41 | 90 to 100 | 90 to 100 | 70 to 79 |  | 
5 | OC(Cc1ccccc1Cl)(Cn1cnnn1)C1(Cl)CC1 (stereo not drawn) [Ia-05, 2-(1-chlorocyclopropyl)-1-(2-chlorophenyl)-3-(tetrazol-1-yl)propan-2-ol] | 2.65 | 90 to 100 | 90 to 100 | 90 to 100 |  | 
6 | OC(Cc1ccccc1F)(Cn1ncnn1)C1(Cl)CC1 (stereo not drawn) [Ib-02, 2-(1-chlorocyclopropyl)-1-(2-fluorophenyl)-3-(tetrazol-2-yl)propan-2-ol] | 2.86 | 90 to 100 | 90 to 100 | 90 to 100 |  | 
7 | C=C(c1ccccc1F)C(O)(Cn1cnnn1)C1(Cl)CC1 (stereo not drawn) [Ia-en-02, 2-(1-chlorocyclopropyl)-3-(2-fluorophenyl)-1-(tetrazol-1-yl)but-3-en-2-ol] | 2.46 | 90 to 100 | 90 to 100 | 90 to 100 |  | 
8 | OC(Cc1cccnc1Cl)(Cn1cnnn1)C1(Cl)CC1 (stereo not drawn) [Ia-03, 2-(1-chlorocyclopropyl)-1-(2-chloro-3-pyridyl)-3-(tetrazol-1-yl)propan-2-ol] | 1.72 | 90 to 100 | 90 to 100 | 90 to 100 |  | chromatographic logP ([1]; method [b]: LC-UV, neutral range, 0.001 molar ammonium acetate solution in water and acetonitrile as eluent): 1.68
9 | OC(Cc1ccc(F)cc1Cl)(Cn1cnnn1)C1(Cl)CC1 (stereo not drawn) [Ia-39] |  |  |  |  | 2.90^[a] | 
10 | OC(Cc1ccccc1Cl)(Cn1cnnn1)C1(F)CC1 (stereo not drawn) [Ia-19] |  |  |  |  | 2.40^[a] | 
11 | OC(Cc1ccc(F)c(F)c1F)(Cn1cnnn1)C1(Cl)CC1 (stereo not drawn) [Ia-44] |  |  |  |  | 2.71^[a] | 
12 | CC=C(c1cccc(F)c1F)C(O)(Cn1cnnn1)C1(Cl)CC1 (racemic) [Ia-en-07] |  |  |  |  | 2.75^[a] | 
13 | Cc1ccc(F)c(CC(O)(Cn2ncnn2)C2(Cl)CC2)c1F (stereo not drawn) [Ib-09] |  |  |  |  | 3.37^[a] | 
14 | CC1(C(=O)Cn2cnnn2)CC1 [XVIa-02] |  |  |  |  | 0.79^[a] | 
15 | OC(Cc1ccccc1Br)(Cn1cnnn1)C1(Cl)CC1 (stereo not drawn) [Ia-24] |  |  |  |  | 2.88^[a] | 
16 | OC(Cc1ccc(F)c(Cl)c1)(Cn1ncnn1)C1(Cl)CC1 (stereo not drawn) [Ib-18] |  |  |  |  | 3.33^[a] | 
17 | Cc1ccccc1CC(O)(Cn1cnnn1)C1(Cl)CC1 (stereo not drawn) [Ia-66] |  |  |  |  | 2.77^[a] | 
18 | O=C(Cn1ncnn1)C1(F)CC1 [XVIb-03] |  |  |  |  | 0.86^[a] | 
19 | Cc1ccc(F)c(CC(O)(Cn2cnnn2)C2(Cl)CC2)c1Cl (stereo not drawn) [Ia-45] |  |  |  |  | 3.23^[a] | 
20 | OC(Cc1cc(F)c(F)cc1F)(Cn1cnnn1)C1(Cl)CC1 (stereo not drawn) [Ia-51] |  |  |  |  | 2.66^[a] | 
21 | OC(Cc1ccccc1)(Cn1cnnn1)C1(F)CC1 (stereo not drawn) [Ia-17] |  |  |  |  | 2.08^[a] | 
22 | OC(Cc1ccccc1F)(Cn1cnnn1)C1(Cl)CC1 (stereo not drawn) [Ia-04, 2-(1-chlorocyclopropyl)-1-(2-fluorophenyl)-3-(tetrazol-1-yl)propan-2-ol] | 2.46 | 90 to 100 | 90 to 100 | 90 to 100 |  | 
23 | OC(Cc1c(F)ccc(F)c1F)(Cn1cnnn1)C1(Cl)CC1 (stereo not drawn) [Ia-54] |  |  |  |  | 2.60^[a] | 
24 | OC(Cc1ccccc1Br)(Cn1cnnn1)C1(F)CC1 (stereo not drawn) [Ia-21] |  |  |  |  | 2.49^[a] | 
25 | OC(Cc1cccc(Cl)c1F)(Cn1ncnn1)C1(Cl)CC1 (stereo not drawn) [Ib-06] |  |  |  |  | 3.19^[a] | 
26 | OC(Cc1ccc(F)c(Cl)c1)(Cn1cnnn1)C1(Cl)CC1 (stereo not drawn) [Ia-52] |  |  |  |  | 2.90^[a] | 

Reference: patent publication US11213031B2, “Tetrazolylpropyl derivatives and their use as fungicides” (BAYER AKTIENGESELLSCHAFT, priority 2017, dated 2022)
